Assay results from patent US11220492B2, “Quinazoline-pyrazole derivatives for the treatment of cancer-related disorders” (ARCUS BIOSCIENCES, INC., priority 2017, dated 2022).

Key:
A2AR = A2AR (Homo sapiens, UniProt P29274); experiment: A2AR potency (KB), Table 1; assay type: biochemical; conditions: read-out: Potency: A2AR KB (A2A)
A2BR = target: T1, A2BR (Homo sapiens, UniProt P29275); experiment: A2BR potency (KB), Table 1; assay type: biochemical
T1 sequence (P29275 1-332): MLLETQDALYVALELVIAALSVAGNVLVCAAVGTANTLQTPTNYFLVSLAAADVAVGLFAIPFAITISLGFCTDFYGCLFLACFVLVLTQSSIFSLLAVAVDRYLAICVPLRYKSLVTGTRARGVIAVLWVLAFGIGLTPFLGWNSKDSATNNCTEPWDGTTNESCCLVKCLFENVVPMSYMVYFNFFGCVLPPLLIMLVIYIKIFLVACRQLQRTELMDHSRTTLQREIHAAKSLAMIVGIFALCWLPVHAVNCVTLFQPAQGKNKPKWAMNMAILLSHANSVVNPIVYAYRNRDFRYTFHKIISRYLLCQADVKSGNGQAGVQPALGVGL

A2AR, sequence (P29274 whole entry): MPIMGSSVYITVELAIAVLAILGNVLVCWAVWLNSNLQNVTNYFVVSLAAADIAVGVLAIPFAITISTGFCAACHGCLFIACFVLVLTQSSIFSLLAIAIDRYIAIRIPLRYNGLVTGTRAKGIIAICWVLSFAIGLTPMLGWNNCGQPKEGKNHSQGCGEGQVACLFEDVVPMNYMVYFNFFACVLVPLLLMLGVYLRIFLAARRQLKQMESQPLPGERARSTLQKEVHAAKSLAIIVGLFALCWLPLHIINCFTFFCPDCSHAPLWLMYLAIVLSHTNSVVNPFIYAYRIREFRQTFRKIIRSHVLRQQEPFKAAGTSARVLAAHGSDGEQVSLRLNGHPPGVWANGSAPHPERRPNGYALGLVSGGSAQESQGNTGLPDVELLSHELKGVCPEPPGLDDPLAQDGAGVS

Which Kb (A2AR) does the source give for `CC(C)(CO)n1ccc(Cn2cc(-c3nc(N)nc4c(F)cccc34)nn2)n1` here?
The Kb was less than 100 nM.

What about the Kb (A2BR) of the same compound?
Its Kb is less than 100 nM.

For `COc1ccc2c(-c3cn(Cc4ccn(C(C)(C)CO)n4)nn3)nc(N)nc2c1`, which Kb (A2AR) is on record?
Its Kb is less than 100 nM.

And the Kb (A2BR)?
Its Kb is less than 100 nM.

How did the Kb (A2AR) turn out when `COc1c(F)ccc2c(-c3cn(Cc4ccn(C(C)C)n4)nn3)nc(N)nc12` was run?
Its Kb is less than 100 nM.

What about the Kb (A2BR) of the same compound?
Its Kb is less than 100 nM.

For `COc1cccc2c(-c3cn(Cc4ccn(CC(=O)N5CC(O)C5)n4)nn3)nc(N)nc12`, which Kb (A2AR) is on record?
The Kb was less than 100 nM.

What about the Kb (A2BR) of the same compound?
The Kb was less than 100 nM.

What does the source list for `CC(C)n1ccc(Cn2cc(-c3cc(N)nc4c(F)cccc34)nn2)n1`?
Kb (A2AR): < 100 nM; Kb (A2BR): < 100 nM

What does the source list for `COc1cccc2c(-c3cn(Cc4ccnn4C)nn3)nc(N)nc12`?
Kb (A2AR): < 100 nM; Kb (A2BR): < 100 nM

With `COc1cccc2c(-c3cn(Cc4cc[nH]n4)nn3)nc(N)nc12` as the compound, how does the Kb (A2AR) read?
The Kb was less than 100 nM.

What about the Kb (A2BR) of the same compound?
The Kb was less than 100 nM.

With `CCOc1cccc2c(-c3cn(Cc4ccn(C5CC5)n4)nn3)nc(N)nc12` as the compound, how does the Kb (A2AR) read?
Its Kb is less than 100 nM.

What about the Kb (A2BR) of the same compound?
The Kb was 100 to 1000 nM.

Which results are given for `CC(C)n1nccc1Cn1cc(-c2nc(N)nc3c(Cl)cccc23)nn1`?
Kb (A2AR): < 100 nM; Kb (A2BR): < 100 nM

`COc1cccc2c(-c3cn(Cc4ccnn4C(C)C)nn3)nc(N)nc12` was tested. Which Kb (A2AR) did it give?
The Kb was less than 100 nM.

And the Kb (A2BR)?
Its Kb is less than 100 nM.

For `COc1cccc2c(-c3cn(Cc4ccnn4CC4CCCO4)nn3)nc(N)nc12` (stereo not shown), which Kb (A2AR) is on record?
The Kb was less than 100 nM.

What about the Kb (A2BR) of the same compound?
The Kb was 100 to 1000 nM.

For `COc1cccc2c(-c3cn(Cc4ccn(CC(C)(C)O)n4)nn3)nc(N)nc12`, which Kb (A2AR) is on record?
The Kb was less than 100 nM.

What about the Kb (A2BR) of the same compound?
The Kb was less than 100 nM.

Which Kb (A2AR) does the source give for `CC(C)n1ccc(Cn2cc(-c3nc(N)nc4c(Cl)cccc34)nn2)n1` here?
Its Kb is less than 100 nM.

And the Kb (A2BR)?
The Kb was less than 100 nM.

For `COc1cccc2c(-c3cn(Cc4ccn(CC(=O)NCC5(O)CC5)n4)nn3)nc(N)nc12`, which Kb (A2AR) is on record?
Its Kb is less than 100 nM.

And the Kb (A2BR)?
Its Kb is less than 100 nM.

With `COc1cccc2c(-c3cn(Cc4ccn(CC(=O)O)n4)nn3)nc(N)nc12` as the compound, how does the Kb (A2AR) read?
The Kb was 100 to 1000 nM.

And the Kb (A2BR)?
The Kb was 100 to 1000 nM.

How did the Kb (A2AR) turn out when `COc1c(F)ccc2c(-c3cn(Cc4ccnn4C(C)C)nn3)nc(N)nc12` was run?
The Kb was less than 100 nM.

What about the Kb (A2BR) of the same compound?
The Kb was less than 100 nM.

For `Nc1nc(-c2cn(Cc3ccn[nH]3)nn2)c2cccc(F)c2n1`, which Kb (A2AR) is on record?
The Kb was less than 100 nM.

And the Kb (A2BR)?
The Kb was less than 100 nM.

Which Kb (A2AR) does the source give for `COc1cccc2c(-c3cn(Cc4ccn(CCN5CCCC5=O)n4)nn3)nc(N)nc12` here?
Its Kb is less than 100 nM.

What about the Kb (A2BR) of the same compound?
The Kb was 100 to 1000 nM.

Which results are given for `COc1cccc2c(-c3cn(Cc4ccn(C(C)C(N)=O)n4)nn3)nc(N)nc12` (stereo not shown)?
Kb (A2AR): < 100 nM; Kb (A2BR): < 100 nM

With `CCOc1cccc2c(-c3cn(Cc4ccn(C(C)C)n4)nn3)nc(N)nc12` as the compound, how does the Kb (A2AR) read?
The Kb was less than 100 nM.

What about the Kb (A2BR) of the same compound?
The Kb was 100 to 1000 nM.

With `COc1cccc2c(-c3cn(Cc4ccn(C(C)C)n4)nn3)nc(N)nc12` as the compound, how does the Kb (A2AR) read?
The Kb was less than 100 nM.

What about the Kb (A2BR) of the same compound?
The Kb was less than 100 nM.

With `COc1cccc2c(-c3cn(Cc4ccn([C@@H]5CCOC5)n4)nn3)nc(N)nc12` as the compound, how does the Kb (A2AR) read?
The Kb was less than 100 nM.

And the Kb (A2BR)?
The Kb was less than 100 nM.

Which Kb (A2AR) does the source give for `COc1cccc2c(-c3cn(Cc4ccn(CC5CCOCC5)n4)nn3)nc(N)nc12` here?
Its Kb is less than 100 nM.

And the Kb (A2BR)?
Its Kb is less than 100 nM.

`COc1cccc2c(-c3cn(Cc4ccnn4CCO)nn3)nc(N)nc12` was tested. Which Kb (A2AR) did it give?
Its Kb is less than 100 nM.

For `COc1cccc2c(-c3cn(Cc4ccn(CC(=O)N[C@@H]5CCOC5)n4)nn3)nc(N)nc12`, which Kb (A2AR) is on record?
Its Kb is less than 100 nM.

What about the Kb (A2BR) of the same compound?
Its Kb is 100 to 1000 nM.

For `CCn1ccc(Cn2cc(-c3nc(N)nc4c(OC)cccc34)nn2)n1`, which Kb (A2AR) is on record?
The Kb was less than 100 nM.

What about the Kb (A2BR) of the same compound?
Its Kb is less than 100 nM.

What does the source list for `Nc1nc(-c2cn(Cc3ccn(C4CC4)n3)nn2)c2ccc(F)c(F)c2n1`?
Kb (A2AR): < 100 nM; Kb (A2BR): < 100 nM

`COCC(C)(C)n1ccc(Cn2cc(-c3nc(N)nc4c(OC)cccc34)nn2)n1` was tested. Which Kb (A2AR) did it give?
The Kb was less than 100 nM.

What about the Kb (A2BR) of the same compound?
Its Kb is less than 100 nM.

`COc1cccc2c(-c3cn(Cc4ccn(CCN5CCOCC5=O)n4)nn3)nc(N)nc12` was tested. Which Kb (A2AR) did it give?
The Kb was less than 100 nM.

And the Kb (A2BR)?
Its Kb is less than 100 nM.

Which results are given for `COc1cccc2c(-c3cn(Cc4ccn(C5CC5)n4)nn3)cc(N)nc12`?
Kb (A2AR): < 100 nM; Kb (A2BR): < 100 nM

With `COc1cccc2c(-c3cn(Cc4ccn(C)n4)nn3)nc(N)nc12` as the compound, how does the Kb (A2AR) read?
The Kb was less than 100 nM.

And the Kb (A2BR)?
The Kb was less than 100 nM.

`COc1cccc2c(-c3cn(Cc4ccn(C(C)C(=O)O)n4)nn3)nc(N)nc12` (stereo not shown) was tested. Which Kb (A2AR) did it give?
Its Kb is less than 100 nM.

And the Kb (A2BR)?
The Kb was 100 to 1000 nM.

For `COc1cccc2c(-c3cn(Cc4ccn(CC(=O)N[C@H]5CCOC5)n4)nn3)nc(N)nc12`, which Kb (A2AR) is on record?
The Kb was less than 100 nM.

And the Kb (A2BR)?
The Kb was 100 to 1000 nM.

How did the Kb (A2AR) turn out when `COc1cccc2c(-c3cn(Cc4ccn(C5CC5)n4)nn3)nc(N)nc12` was run?
The Kb was less than 100 nM.

And the Kb (A2BR)?
Its Kb is less than 100 nM.

Which Kb (A2AR) does the source give for `COc1cccc2c(-c3cn(Cc4ccn(CCO)n4)nn3)nc(N)nc12` here?
The Kb was less than 100 nM.

For `COc1c(F)ccc2c(-c3cn(Cc4ccn(C(C)(C)CO)n4)nn3)nc(N)nc12`, which Kb (A2AR) is on record?
The Kb was less than 100 nM.

What about the Kb (A2BR) of the same compound?
Its Kb is 100 to 1000 nM.

For `COc1cccc2c(-c3cn(Cc4ccn(CC(N)=O)n4)nn3)nc(N)nc12`, which Kb (A2AR) is on record?
The Kb was less than 100 nM.

And the Kb (A2BR)?
Its Kb is less than 100 nM.

For `N#Cc1ccc2c(-c3cn(Cc4ccn(C5CC5)n4)nn3)nc(N)nc2c1`, which Kb (A2AR) is on record?
The Kb was less than 100 nM.

And the Kb (A2BR)?
Its Kb is less than 100 nM.

How did the Kb (A2AR) turn out when `COc1cccc2c(-c3cn(Cc4ccn([C@H]5CCOC5)n4)nn3)nc(N)nc12` was run?
The Kb was less than 100 nM.

What about the Kb (A2BR) of the same compound?
Its Kb is less than 100 nM.

Which Kb (A2AR) does the source give for `CC(C)(O)Cn1ccc(Cn2cc(-c3cc(N)nc4c(F)cccc34)nn2)n1` here?
The Kb was less than 100 nM.

What about the Kb (A2BR) of the same compound?
Its Kb is less than 100 nM.

For `COc1cccc2c(-c3cn(Cc4ccn(C(C)(C)CO)n4)nn3)nc(N)nc12`, which Kb (A2AR) is on record?
The Kb was less than 100 nM.

What about the Kb (A2BR) of the same compound?
The Kb was less than 100 nM.

`COc1cccc2c(-c3cn(Cc4cc(C(C)(C)O)[nH]n4)nn3)nc(N)nc12` was tested. Which Kb (A2AR) did it give?
The Kb was less than 100 nM.

And the Kb (A2BR)?
The Kb was less than 100 nM.
